In patent US10329282B2, “Rho-associated protein kinase inhibitor, pharmaceutical composition comprising the same, as well as preparation method and use thereof” (Beijing Tide Pharmaceutical Co., Ltd., priority 2017, dated 2019) one finds IC50 data, which are given here for 30 molecules.

For this assay, the target named is ROCK2 (Homo sapiens (Human), UniProt O75116). The assay is described as follows: ROCK2 kinase IC50 assay (CISBIO HTRF KinEASE-STK S2 kit). The format is biochemical. As to conditions: ROCK2 from Carna Biosciences, 2 h incubation at room temperature. The protocol:
The kinase IC50 was determined by a commercialized CISBIO kinase detection kit, HTRF KinEASE-STK S2 kit (62ST2PEC). ROCK2 (01-119) employed in the reaction was purchased from Carna Biosciences.
Before the assay, the following working solutions as needed were formulated with corresponding reagents according to the instruction of the kinase detection kit: 1×kinase buffer, 5×STK-52 substrate working solution (1.5 μM) and 5×ATP working solution (1.5 μM), 5×ROCK2 kinase working solution, 4×Streptavidin-XL665 working solution, and 4×STK-Ab-Cryptate 2 detection solution. Then the assay was performed according to the following procedure.
A solution of a compound at a concentration of 10000 nM was prepared with the 1×kinase buffer containing 2.5% DMSO. Gradient dilution of the solution of the compound was performed with the kinase buffer containing DMSO, so as to obtain solutions of a test compound at 9 different concentrations. In addition to wells of test compounds, a positive well (containing all the reagents except the compound) and a negative well (containing all the reagents except the test compound and kinase) were set. Except for the control wells (positive and negative wells), a solution of a test compound (4 μL) was added to each of the reaction wells, and a solution of 2.5% DMSO was added to the control wells. Then the substrate (2 μM, i.e., 2 μL 5×STK-S2 substrate working solution) was added to each of the reaction wells. The 5×ROCK2 kinase working solution (2 μL, containing 1.4 ng ROCK2 kinase) was added to each of the reaction wells except for the negative well, the volume of which was made up with the 1×kinase buffer (2 μL). The 5×ATP working solution (2 μL) was added to each of the reaction wells, and the mixtures were incubated at room temperature for 2 hours. After the kinase reaction was complete, the 4×Streptavidin-XL665 working solution was added to each of the reaction wells, the solutions were mixed, followed by immediate addition of the 4×STK-Ab-Cryptate 2 detection solution (5 μL), and the mixtures were incubated at room temperature for 1 hour. The fluorescence signal was read on ENVISION (Perkinelmer) (excitation wavelength: 320 nm, and emission wavelength: 665 nm and 615 nm). The inhibitory rate in each well was calculated based on the fluorescence intensity value: ER (Emission Ratio)=(fluorescence intensity at 665 nm/fluorescence intensity at 615 nm); inhibitory rate=(ERpositive−ERtest compound) (ERpositive−ERnegative)*100%. Curves were plotted and fitted to obtain the median inhibitory concentration (IC50) of each teat compound with the PRISM 5.0 software.
(Time-resolved FRET reads energy transfer from a long-lived donor to a nearby acceptor.)

Sequence of ROCK2 (O75116 1-553): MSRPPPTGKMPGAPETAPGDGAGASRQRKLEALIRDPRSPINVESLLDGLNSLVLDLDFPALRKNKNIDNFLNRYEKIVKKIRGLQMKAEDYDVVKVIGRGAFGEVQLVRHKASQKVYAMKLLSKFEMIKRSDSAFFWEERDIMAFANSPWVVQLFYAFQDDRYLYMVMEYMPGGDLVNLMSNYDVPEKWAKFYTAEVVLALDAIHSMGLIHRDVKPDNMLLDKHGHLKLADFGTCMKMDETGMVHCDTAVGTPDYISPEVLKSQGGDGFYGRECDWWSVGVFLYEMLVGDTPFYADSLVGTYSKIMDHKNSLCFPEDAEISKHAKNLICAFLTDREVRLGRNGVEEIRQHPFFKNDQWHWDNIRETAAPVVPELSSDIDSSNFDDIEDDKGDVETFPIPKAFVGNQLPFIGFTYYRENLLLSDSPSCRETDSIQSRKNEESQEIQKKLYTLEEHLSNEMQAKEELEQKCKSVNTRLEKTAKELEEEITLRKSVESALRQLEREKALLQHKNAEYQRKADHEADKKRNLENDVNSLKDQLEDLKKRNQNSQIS

As to `CCN(CC)C(=O)c1cc2ccc(-c3ncc(OC)c(Nc4ccc(-c5cn[nH]c5)cc4)n3)cc2[nH]1` [TDI01823, 6-(4-((4-(1H-pyrazol-4-yl)phenyl)amino)-5-methoxypyrimidin-2-yl)-N,N-diethyl-1H-indole-2-carboxamide], half-maximal inhibition (IC50) required 336 nM.
As for `O=C(NC1CCCCC1)c1cc2ccc(-c3nccc(Nc4ccc5[nH]ncc5c4)n3)cc2s1` [TDI01112, 6-(4-((1H-indazol-5-yl)amino)pyrimidin-2-yl)-N-cyclohexylbenzo[b]thiophene-2-carboxamide], it took 185 nM to reach half-maximal inhibition (IC50).
Consider `CC(C)NC(=O)c1ccc2cc(-c3nccc(Nc4ccc5[nH]ncc5c4)n3)[nH]c2c1` [TDI01127, 2-(4-((1H-indazol-5-yl)amino)pyrimidin-2-yl)-N-isopropyl-1H-indole-6-carboxamide], for which half-maximal inhibition (IC50) required 100 nM.
To `O=C(NC1CCOC1)c1cc2ccc(-c3nccc(Nc4ccc5[nH]ncc5c4)n3)cc2s1` (stereo not drawn) [TDI01113, 6-(4-((1H-indazol-5-yl)amino)pyrimidin-2-yl)-N-(tetrahydrofuran-3-yl)benzo[b]thiophene-2-carboxamide] belongs 42 nM; to `CNC(=O)c1cc2ccc(-c3nc(Nc4ccc(-c5cn[nH]c5)cc4)c4sccc4n3)cc2[nH]1` [TDI01379, 6-(4-((4-(1H-pyrazol-4-yl)phenyl)amino)thieno[3,2-d]pyrimidin-2-yl)-N-methyl-1H-indole-2-carboxamide], 411 nM; to `CCNC(=O)c1cc2cc(-c3nccc(Nc4ccc(-c5cn[nH]c5)cc4)n3)ccc2[nH]1` [TDI01408], 400 nM.
To `CN1CCC(N2CCC(NC(=O)c3cc4ccc(-c5nccc(Nc6ccc7[nH]ncc7c6)n5)cc4[nH]3)CC2)CC1` [TDI01317, 6-(4-((1H-indazol-5-yl)amino)pyrimidin-2-yl)-N-(1′-methyl-[1,4′-bipiperidin]-4-yl)-1H-indole-2-carboxamide] belongs 112 nM; to `O=C(Nc1cnc2[nH]ccc2c1)c1cc2ccc(-c3nccc(Nc4ccc5[nH]ncc5c4)n3)cc2[nH]1` [TDI01258, 6-(4-((1H-indazol-5-yl)amino)pyrimidin-2-yl)-N-(1H-pyrrolo[2,3-b]pyridin-5-yl)-1H-indole-2-carboxamide], 62 nM; to `CC(C)NC(=O)C1Cc2ccc(-c3nccc(Nc4ccc5[nH]ncc5c4)n3)cc2N1` (stereo not drawn) [TDI01292, 6-(4-((1H-indazol-5-yl)amino)pyrimidin-2-yl)-N-isopropylindoline-2-carboxamide], 242 nM.
Consider `CN(CC(F)(F)F)C(=O)c1cc2ccc(-c3ncc(F)c(Nc4ccc(-c5cn[nH]c5)cc4)n3)cc2[nH]1` [TDI01426], for which the IC50 (commonly the point on the concentration scale where inhibition reaches its midpoint) was 365 nM.
To `CN(C(=O)c1cc2ccc(-c3nccc(Nc4ccc(-c5cn[nH]c5)cc4)n3)cc2[nH]1)c1ccncc1` [TDI01421, 6-(4-((4-(1H-pyrazol-4-yl)phenyl)amino)pyrimidin-2-yl)-N-methyl-N-(pyridin-4-yl)-1H-indole-2-carboxamide] belongs 289 nM; to `CNC(=O)c1cc2ccc(-c3nccc(Nc4ccc(-c5cn[nH]c5)cc4)n3)cc2[nH]1` [TDI01296, 6-(4-((4-(1H-pyrazol-4-yl)phenyl)amino)pyrimidin-2-yl)-N-methyl-1H-indole-2-carboxamide], 211 nM.
To `CN(C)c1cnccc1NC(=O)c1cc2ccc(-c3nccc(Nc4ccc5[nH]ncc5c4)n3)cc2[nH]1` [TDI01289, 6-(4-((1H-indazol-5-yl)amino)pyrimidin-2-yl)-N-(3-(dimethylamino)pyridin-4-yl)-1H-indole-2-carboxamide] belongs 72 nM; to `O=C(Nc1ccncc1)c1cc2ccc(-c3nccc(Nc4ccc(-c5cn[nH]c5)cc4)n3)cc2s1` [TDI01393], 258 nM.
Regarding `CN1CCC2(CC1)CCN(C(=O)c1cc3ccc(-c4nccc(Nc5ccc6[nH]ncc6c5)n4)cc3[nH]1)CC2` [TDI01320, (6-(4-((1H-indazol-5-yl)amino)pyrimidin-2-yl)-1H-indol-2-yl)(9-methyl-3,9-diazaspiro[5.5]undecan-3-yl)methanone], inhibition was half-maximal at 410 nM (IC50). This IC50 is about 1.6-fold higher than that of the molecule before.
As for `O=C(NC1CC1)c1cc2ccc(-c3nccc(Nc4ccc(-c5cn[nH]c5)cc4)n3)cc2[nH]1` [TDI01324, 6-(4-((4-(1H-pyrazol-4-yl)phenyl)amino)pyrimidin-2-yl)-N-cyclopropyl-1H-indole-2-carboxamide], the IC50 was determined as 101 nM.
On to `O=C(c1cc2ccc(-c3nccc(Nc4ccc(-c5cn[nH]c5)cc4)n3)cc2[nH]1)N1CCO[C@@H](CO)C1` [TDI01852, (R)-(6-(4-((4-(1H-pyrazol-4-yl)phenyl)amino)pyrimidin-2-yl)-1H-indel-2-yl)(2-(hydroxymethyl)morpholino)methanone], for which the IC50 is 482 nM.
`COC(=O)c1ccc(NC(=O)c2cc3ccc(-c4nccc(Nc5ccc6[nH]ncc6c5)n4)cc3[nH]2)cc1` [TDI01130, methyl 4-(6-(4-((1H-indazol-5-yl)amino)pyrimidin-2-yl)-1H-indole-2-carboxamido)benzoate] displayed an IC50 of 33 nM. Compared with the last molecule, the IC50 is about 15-fold lower.
To `CC(C)NC(=O)c1cc2ccc(-c3nc(Nc4ccc5[nH]ncc5c4)c4scnc4n3)cc2[nH]1` [TDI01149, 6-(7-((1H-indazol-5-yl)amino)thiazolo[4,5-d]pyrimidin-5-yl)-N-isopropyl-1H-indole-2-carboxamide] belongs 100 nM; to `O=C(Nc1cccnc1)c1cc2ccc(-c3nccc(Nc4ccc(-c5cn[nH]c5)cc4)n3)cc2[nH]1` [TDI01397, 6-(4-((4-(1H-pyrazol-4-yl)phenyl)amino)pyrimidin-2-yl)-N-(pyridin-3-yl)-1H-indole-2-carboxamide], 120 nM.
As to `O=C(Nc1ccccc1)c1cc2ccc(-c3nccc(Nc4ccc5[nH]ncc5c4)n3)cc2[nH]1` [TDI01215, 6-(4-((1H-indazol-5-yl)amino)pyrimidin-2-yl)-N-phenyl-1H-indole-2-carboxamide], the IC50 came out at 382 nM. This IC50 lies about 3.2-fold higher than the previous one.
To `CN(C(=O)c1cc2ccc(-c3nccc(Nc4ccc(-c5cn[nH]c5)cc4)n3)cc2[nH]1)C1CC(O)C1` (stereo not drawn) [TDI01418] belongs 272 nM.
`O=C(Nc1cnccn1)c1cc2ccc(-c3nccc(Nc4ccc5[nH]ncc5c4)n3)cc2[nH]1` [TDI01160, 6-(4-((1H-indazol-5-yl)amino)pyrimidin-2-yl)-N-(pyrazin-2-yl)-1H-indole-2-carboxamide] displayed an IC50 of 54 nM.
To `CCN(CCO)C(=O)c1cc2ccc(-c3nccc(Nc4ccc(-c5cn[nH]c5)cc4)n3)cc2[nH]1` [TDI01415, 6-(4-((4-(1H-pyrazol-4-yl)phenyl)amino)pyrimidin-2-yl)-N-ethyl-N-(2-hydroxyethyl)-1H-indole-2-carboxamide] belongs 262 nM.
To `CC(C)NC(=O)c1cc2ccc(-c3nc(Nc4ccc5[nH]ncc5c4)c4occc4n3)cc2s1` [TDI01135, 6-(4-((1H-indazol-5-yl)amino)furo[3,2-d]pyrimidin-2-yl)-N-isopropylbenzo[b]thiophene-2-carboxamide] belongs 123 nM; to `O=C(c1cc2ccc(-c3nccc(Nc4ccc(-c5cn[nH]c5)cc4)n3)cc2[nH]1)N1CCC2(CCNCC2)CC1` [TDI01425, (6-(4-((4-(1H-pyrazol-4-yl)phenyl)amino)pyrimidin-2-yl)-1H-indol-2-yl)(3,9-diazaspiro[5.5]undecan-3-yl)methanone], 119 nM.
On to `O=C(Nc1nncs1)c1cc2ccc(-c3nccc(Nc4ccc5[nH]ncc5c4)n3)cc2[nH]1` [TDI01247, 6-(4-((1H-indazol-5-yl)amino)pyrimidin-2-yl)-N-(1,3,4-thiadiazol-2-yl)-1H-indole-2-carboxamide], for which 134 nM corresponded to half-maximal inhibition (IC50).
In the case of `CC(C)NC(=O)C1COc2ccc(-c3nccc(Nc4ccc5[nH]ncc5c4)n3)cc2O1` (stereo not drawn) [TDI01103, 7-(4-((1H-indazol-5-yl)amino)pyrimidin-2-yl)-N-isopropyl-2,3-dihydrobenzo[b][1,4]dioxine-2-carboxamide], the concentration for half-maximal inhibition (IC50) is 167 nM. The IC50 values of the last two molecules are within 1.5-fold of each other.
To `O=C(NC1CCC1)c1cc2ccc(-c3nc(Nc4ccc(-c5cn[nH]c5)cc4)c4sccc4n3)cc2[nH]1` [TDI01424, 6-(4-((4-(1H-pyrazol-4-yl)phenyl)amino)thieno[3,2-d]pyrimidin-2-yl)-N-cyclobutyl-1H-indole-2-carboxamide] belongs 138 nM.
The molecule `CN(C)C(=O)c1cc2ccc(-c3nccc(Nc4ccc5[nH]ncc5c4)n3)cc2s1` [TDI01110, 6-(4-((1H-indazol-5-yl)amino)pyrimidin-2-yl)-N,N-dimethylbenzo[b]thiophene-2-carboxamide] displayed an IC50 of 422 nM.
